Our source for the inhibition and C50 values is ChEMBL document CHEMBL1130443, “Enhanced DNA photocleavage and binding properties of sapphyrin-polyamine conjugates” (Bioorg Med Chem Lett, 1997).

SMILES strings stand for the structures.

The test system of the first test is Nucleic Acid. Put plainly: Compound was measured for the inhibition of DNA cleavage against […] plasmid in the presence of 0.2 M sodium dodecyl sulfate (SDS). It is filed as nucleic-acid assay.
Settings: not given
On to `CCc1c(CC)c2cc3nc(cc4[nH]c(c(C)c4CC)c4[nH]c(cc5nc(cc1[nH]2)C(CCC(=O)N(CCO)CCO)=C5C)c(CC)c4C)C(C)=C3CCC(=O)N(CCO)CCO`, for which the inhibition is 100%.

A further test deals with Nucleic Acid. The experiment in a line: Compound was measured for the inhibition of DNA cleavage against […] plasmid in the presence of 2M NaCl. Type of test: nucleic-acid assay.
Settings: not given
For `CCC1=C(CC)c2cc3[nH]c(cc4[nH]c(c(C)c4CC)c4[nH]c(cc5nc(cc1n2)C(CCC(=O)NCCOCCOCCN)=C5C)c(CC)c4C)c(C)c3CCC(=O)NCCOCCOCCN`, the inhibition is 66%.
For `CCc1c(CC)c2cc3nc(cc4[nH]c(c(C)c4CC)c4[nH]c(cc5nc(cc1[nH]2)C(CCC(=O)N(CCO)CCO)=C5C)c(CC)c4C)C(C)=C3CCC(=O)N(CCO)CCO`, the inhibition came out at 92%.
The same measure, in the same setting: as for `CCc1c(CC)c2cc3nc(cc4[nH]c(c(C)c4CC)c4[nH]c(cc5nc(cc1[nH]2)C(CCC(=O)NCCNCCN)=C5C)c(CC)c4C)C(C)=C3CCC(=O)NCCNCCN`, the figure is 87%; as for `CCc1c(CC)c2cc3nc(cc4[nH]c(c(C)c4CC)c4[nH]c(cc5nc(cc1[nH]2)C(CCC(=O)NCCN(CCN)CCN)=C5C)c(CC)c4C)C(C)=C3CCC(=O)NCCN(CCN)CCN`, 93%.

The test system of a further test is Nucleic Acid. Put plainly: Compound was measured for the inhibition of DNA cleavage against […] plasmid in the presence of 0.2 M sodium dodecyl sulfate(SDS). Type of test: nucleic-acid assay.
Settings: not given
With `CCC1=C(CC)c2cc3[nH]c(cc4[nH]c(c(C)c4CC)c4[nH]c(cc5nc(cc1n2)C(CCC(=O)NCCOCCOCCN)=C5C)c(CC)c4C)c(C)c3CCC(=O)NCCOCCOCCN`, the inhibition came to 31%.
On the same count and under the same terms, as for `CCc1c(CC)c2cc3nc(cc4[nH]c(c(C)c4CC)c4[nH]c(cc5nc(cc1[nH]2)C(CCC(=O)NCCNCCN)=C5C)c(CC)c4C)C(C)=C3CCC(=O)NCCNCCN`, the figure is 47%; as for `CCc1c(CC)c2cc3nc(cc4[nH]c(c(C)c4CC)c4[nH]c(cc5nc(cc1[nH]2)C(CCC(=O)NCCN(CCN)CCN)=C5C)c(CC)c4C)C(C)=C3CCC(=O)NCCN(CCN)CCN`, 41%.

The next test relates to Nucleic Acid. The experiment in a line: The C50 value refers to the concentration of compound required to displace 50% of the ethidium bromide from the DNA. Type of test: nucleic-acid assay. The conditions noted are these: Bos taurus.
`CCC1=C(CC)c2cc3[nH]c(cc4[nH]c(c(C)c4CC)c4[nH]c(cc5nc(cc1n2)C(CCC(=O)NCCOCCOCCN)=C5C)c(CC)c4C)c(C)c3CCC(=O)NCCOCCOCCN` registered a C50 of 0.062 µM.
Consider `CCc1c(CC)c2cc3nc(cc4[nH]c(c(C)c4CC)c4[nH]c(cc5nc(cc1[nH]2)C(CCC(=O)N(CCO)CCO)=C5C)c(CC)c4C)C(C)=C3CCC(=O)N(CCO)CCO`, for which the C50 is 1.2 µM.
Same read-out and setting: as for `CCc1c(CC)c2cc3nc(cc4[nH]c(c(C)c4CC)c4[nH]c(cc5nc(cc1[nH]2)C(CCC(=O)NCCNCCN)=C5C)c(CC)c4C)C(C)=C3CCC(=O)NCCNCCN`, the figure is 0.127 µM; as for `CCc1c(CC)c2cc3nc(cc4[nH]c(c(C)c4CC)c4[nH]c(cc5nc(cc1[nH]2)C(CCC(=O)NCCN(CCN)CCN)=C5C)c(CC)c4C)C(C)=C3CCC(=O)NCCN(CCN)CCN`, 0.114 µM; as for `NCCN(CCN)CCN`, 28 µM.

Usually inhibition stands for the drop in the measured response relative to a control, in per cent.
